Experimental data from ChEMBL document CHEMBL5390199, “Discovery of novel N-aryl-2-trifluoromethyl-quinazoline-4-amine derivatives as the inhibitors of tubulin polymerization in leukemia cells” (Eur J Med Chem, 2023).
Calls of active or inactive are those of the source. No cut-off for these calls is given here.

How the values were obtained:
[1] = Selectivity index, ratio of IC50 for cytotoxicity against human L02 cells to IC50 for cytotoxicity against human HEL cells
[2] = test system: HEL; experiment: Induction of cell cycle arrest in human HEL cells assessed as reduction in accumulation of cells at S phase incubated for 12 hrs by flow cytometry; assay type: functional, cell-based
[3] = test system: HEL; experiment: Induction of cell cycle arrest in human HEL cells assessed as reduction in accumulation of cells at G0/G1 phase incubated for 12 hrs by flow cytometry; assay type: functional, cell-based
[4] = test system: LNCaP; experiment: Cytotoxicity against human LNCaP cells assessed as inhibition of cell growth incubated for 48 hrs by MTT assay; assay type: functional, cell-based
[5] = test system: HEL; experiment: Induction of morphological changes in human HEL cells by fluorescence microscopic analysis; assay type: functional, cell-based
[6] = test system: HEL; experiment: Cytotoxicity against human HEL cells assessed as inhibition of cell growth incubated for 48 hrs by MTT assay; assay type: functional, cell-based
[7] = test system: HeLa; experiment: Cytotoxicity against human HeLa cells assessed as inhibition of cell growth incubated for 48 hrs by MTT assay; assay type: functional, cell-based
[8] = test system: K562; experiment: Cytotoxicity against human K562 cells assessed as inhibition of cell growth incubated for 48 hrs by MTT assay; assay type: functional, cell-based; details: K562, 48 h
[9] = test system: HEL; experiment: Induction of cell cycle arrest in human HEL cells assessed as increase in accumulation of cells at G2/M phase incubated for 12 hrs by flow cytometry; assay type: functional, cell-based
[10] = test system: K562; experiment: Induction of morphological changes in human K562 cells by fluorescence microscopic analysis; assay type: functional, cell-based
[11] = test system: HUVEC; experiment: Antiangiogenic activity against human HUVEC cells assessed as inhibition of cell migration at 0.5 uM measured after 24 hrs by scratch wound healing assay; assay type: functional, cell-based
[12] = test system: HEL; experiment: Induction of apoptosis in human HEL cells at 0.5 uM incubated for 48 hrs by annexin V-FITC/propidium iodide staining based flow cytometry relative to control; assay type: functional
[13] = test system: K562; experiment: Induction of apoptosis in human K562 cells at 0.5 uM incubated for 48 hrs by annexin V-FITC/propidium iodide staining based flow cytometry relative to control; assay type: functional
[14] = Cytotoxicity against human L02 cells assessed as inhibition of cell growth incubated for 48 hrs by MTT assay; assay type: toxicity, cell-based
[15] = test system: K562; experiment: Induction of cell cycle arrest in human K562 cells assessed as reduction in accumulation of cells at G0/G1 phase incubated for 12 hrs by flow cytometry; assay type: functional, cell-based
[16] = Selectivity index, ratio of IC50 for cytotoxicity against human L02 cells to IC50 for cytotoxicity against human K562 cells; assay type: toxicity, cell-based; details: L02 cells and K562 cells, read-out: Ratio IC50
[17] = test system: K562; experiment: Induction of cell cycle arrest in human K562 cells assessed as increase in accumulation of cells at G2/M phase incubated for 12 hrs by flow cytometry; assay type: functional, cell-based
[18] = test system: K562; experiment: Induction of cell cycle arrest in human K562 cells assessed as reduction in accumulation of cells at S phase incubated for 12 hrs by flow cytometry; assay type: functional, cell-based
[19] = molecular target: T1, Tubulin (Homo sapiens) (UniProt P68371+Q9H4B7+P0DPH7+P68366+Q13509+Q71U36+P04350+Q3ZCM7+P07437+P68363+Q9BQE3+Q6PEY2+Q13885+Q9BVA1+Q9BUF5); experiment: Inhibition of microtubule polymerization in human K562 cells at 0.5 uM measured for 60 mins; assay type: cell-based
[20] = molecular target: T1, Tubulin (Homo sapiens); experiment: Induction of microtubule depolymerization in human K562 cells at 500 nM incubated for 24 hrs by confocal microscopic analysis; assay type: cell-based
[21] = molecular target: Tubulin beta (Homo sapiens) (UniProt P68371+Q9H4B7+Q13509+P04350+Q3ZCM7+P07437+Q13885+Q9BVA1+Q9BUF5+A6NNZ2); experiment: Binding affinity to beta-tubulin colchicine binding site in human K562 cells assessed as inhibition of EBI-beta-tubulin adduct band formation preincubated for 2 hrs followed by EBI addition and measured after 1.5 hrs by EBI competition based Western blot analysis; assay type: cell-based; details: dose 0.2-25 µM, time 3.5 hrs
[22] = molecular target: T1, Tubulin (Homo sapiens); experiment: Induction of microtubule depolymerization in human K562 cells assessed as aggregation of microtubule fibers at 100 nM incubated for 24 hrs by confocal microscopic analysis; assay type: cell-based
[23] = Homo sapiens, HeLa, 48 h, read-out: IC50

SMILES | IC50 [4] | Activity [5] | IC50 [6] | IC50 [7, 23] | IC50 [8] | Activity [10] | Activity [11] | other results
COc1ccc(N(C)c2nc(C(F)(F)F)nc3ccc(C)cc23)cc1 | 237 nM | Active | 34 nM | 141 nM | 3280 nM | Active | Active | Ratio IC50 [1]: 3.38; Activity [2]: Active; Activity [3]: Active; Activity [9]: Active; Activity [12]: 29.2%
C=CC(=O)Nc1cc(N(C)c2nc(C(F)(F)F)nc3ccc(F)cc23)ccc1OC | 402 nM | – | 422 nM | 165 nM | 986 nM | – | – | –
COc1cc2c(c(OC)c1OC)-c1ccc(OC)c(=O)cc1[C@@H](NC(C)=O)CC2 [COLCHICINE] | 245 nM | – | 156 nM | 15 nM | 975 nM | – | – | –
COc1ccc(N(C)c2nc(C(F)(F)F)nc3ccc(F)cc23)cc1NC(C)=O | 810 nM | – | 1120 nM | 46 nM | 1590 nM | – | – | –
CN(c1ccc2c(ccn2C)c1)c1nc(C(F)(F)F)nc2ccc(Cl)cc12 | 138 nM | Active | 89 nM | 335 nM | 684 nM | Active | Active | Ratio IC50 [1]: 3.45; Activity [2]: Active; Activity [3]: Active; Activity [9]: Active; Activity [12]: 28.5%
CCN(CC)c1cc(N(C)c2nc(C(F)(F)F)nc3ccc(F)cc23)ccc1OC | 13300 nM | – | 11700 nM | 8390 nM | 21600 nM | – | – | –
COc1ccc(N(C)c2nc(C(F)(F)F)nc3cc(OC)c(OCCCN4CCCC4)cc23)cc1 | 172 nM | – | 1570 nM | 445 nM | 2410 nM | – | – | –
COc1ccc(N(C)c2nc(C(F)(F)F)nc3cc(OC)c(O)cc23)cc1 | 1630 nM | – | 4520 nM | – | 2520 nM | – | – | IC50 ([7]; hela): Not Active
CNc1cc(N(C)c2nc(C(F)(F)F)nc3ccc(F)cc23)ccc1OC | 668 nM | – | 273 nM | 88 nM | 2250 nM | – | – | –
COc1ccc(N(C)c2nc(C(F)(F)F)nc3ccc(Cl)cc23)cc1[N+](=O)[O-] | 589 nM | Active | 397 nM | 1000 nM | 177 nM | Active | Active | Activity [13]: 12.7%; IC50 at 48 h [14]: 570 nM; Activity [15]: Active; selectivity ratio [16]: 3.22; Activity [17]: Active; Activity [18]: Active
COc1ccc(N(C)c2nc(C(F)(F)F)nc3ccc(Cl)cc23)cc1 | 143 nM | Active | 294 nM | 332 nM | 294 nM | Active | Active | Ratio IC50 [1]: 8.28; Activity [2]: Active; Activity [13]: 19.7%; IC50 at 48 h [14]: 323 nM; Activity [3]: Active; Activity [15]: Active; selectivity ratio [16]: 1.1; Activity [17]: Active; Activity [9]: Active; Activity [18]: Active; Activity [12]: 31%
COc1ccc(N(C)c2nc(C(F)(F)F)nc3ccc(F)cc23)cc1 | 377 nM | Active | 99 nM | 110 nM | 265 nM | Active | Active | Ratio IC50 [1]: 19.7; Activity [2]: Active; Activity [13]: 19.9%; Activity [19]: Active; IC50 at 48 h [14]: 1950 nM; Activity [3]: Active; Activity [20]: Active; Activity [15]: Active; Activity [21]: Dose-Dependent Effect; selectivity ratio [16]: 7.36; Activity [17]: Active; Activity [9]: Active; Activity [18]: Active; Activity [12]: 32.3%
Cc1ccc2nc(C(F)(F)F)nc(N(C)c3ccc(C(F)(F)F)cc3)c2c1 | 2660 nM | – | 1400 nM | 2870 nM | 1930 nM | – | – | –
COc1cc2nc(C(F)(F)F)nc(N(C)c3ccc4c(ccn4C)c3)c2cc1O | 481 nM | – | 468 nM | 1120 nM | 2260 nM | – | – | –
CN(c1ccc2c(ccn2C)c1)c1nc(C(F)(F)F)nc2ccc(F)cc12 | 96 nM | Active | 363 nM | 22 nM | 450 nM | Active | Active | Activity [13]: 20.3%; IC50 at 48 h [14]: 2830 nM; Activity [15]: Active; selectivity ratio [16]: 6.29; Activity [17]: Active; Activity [18]: Active
Cc1ccc2nc(C(F)(F)F)nc(N(C)c3ccc4c(ccn4C)c3)c2c1 | 945 nM | – | 992 nM | 1300 nM | 1210 nM | – | – | –
CC(=O)O[C@H]1C(=O)[C@@]2(C)[C@H]([C@H](OC(=O)c3ccccc3)[C@]3(O)C[C@H](OC(=O)[C@H](O)[C@@H](NC(=O)c4ccccc4)c4ccccc4)C(C)=C1C3(C)C)[C@]1(OC(C)=O)CO[C@@H]1C[C@@H]2O [PACLITAXEL] | 58 nM | – | 200 nM | 6 nM | 874 nM | – | – | Activity [22]: Active
COc1ccc(N(C)c2nc(C(F)(F)F)nc3ccc(F)cc23)cc1NC(=O)CCl | 256 nM | – | 595 nM | 37 nM | 1390 nM | – | – | –
CCNc1cc(N(C)c2nc(C(F)(F)F)nc3ccc(F)cc23)ccc1OC | 2560 nM | – | 6960 nM | 201 nM | 2420 nM | – | – | –
COc1ccc(N(C)c2nc(C(F)(F)F)nc3ccc(Cl)cc23)c([N+](=O)[O-])c1 | 2590 nM | – | 1320 nM | 613 nM | 2250 nM | – | – | –
